Read-outs that look alike come from different tables or passages of the source. Marks after values point to notes of the source that are not given here.
Legend:
Format in all cases: physicochemical
[1] = Solubility of the CypH dyes (Table 1)
Experimental: (§1) Characterization: All new CypH dyes were characterized by proton NMR and mass spectrometry to confirm identity. NMR data was consistent with the structure and mass spectrometry results gave the expected mass of the dye±0.5 amu. An HPLC method was developed (see below) and used to assess dye purity. […] Retention times on the column generally correlated with lipophilicity of the dyes with water soluble dyes containing sulfate groups eluting out earlier (@10.6 min for CypH-3, 6, 9) than CypH-1 (@11.9 min) and the more lipophilic dyes later. Optical properties of the dyes, acid dissociation constants and solubilities were also determined. Synthetic intermediates were also characterized by proton NMR.

[2] = Fluorescence properties of the CypH dyes at pH 5.0 and pH 7.5 (Table 2); settings: for Ratio Intensity pH 5.0/7.5: fluorescence intensity pH 5.0 over pH 7.5
Text: The excitation and emission maxima of CypH-1 are 760 and 777 nm, respectively. The signal intensity ratio of pH 5 over pH 7.5 was about 10. The meso-bridge ring size, lipophilicity and electro-density of CypH-1 was modified to provide better optical property. […] The best compound from this group was CypH-5 whose fluorescence ratio of pH 5.0/pH 7.5 was increased to 22. Based on this initial structure and property relationship, the second round of 10 new analogs were designed using CypH-5 as the core, focusing on modifying the electron density on the aniline ring and the indolinium ring. Various alkyl groups, such as methyl, ethyl, propyl, isopropyl and their combinations, were applied to these two positions.
The CypH analogs with other longer alkyl chains had much lower background fluorescence. […] Among them, CypH-11, which has a methyl isopropyl aniline and an isopropyl group on the indolinium ring, gave a 112-fold enhancement in fluorescence signal. CypH-11 has absorbance and emission maxima at 766 nm and 785 nm, respectively (FIG. 4) and was selected as the lead compound (vide infra).

[3] = Optical properties of the CypH dyes: absorbance maximum and extinction coefficient in EtOH (Table 1); settings: for Ex Coeff (M^−1cm^−1) @ Abs Max: at absorbance maximum
Experimental: as §1

[4] = organic solvent or mixture, in EtOH, read-out: Solubility

Row | Compound | Solubility [1, 4] [µM] | Ratio Intensity pH 5.0/7.5 [2] | FL Intensity pH 5.0 [2] | FL Max (nm) pH 5.0 [2] [nm] | FL Intensity pH 7.5 [2] | FL Max (nm) pH 7.5 [2] [nm] | Ex Coeff (M^−1cm^−1) @ Abs Max [3] | Abs. Max (nm) in EtOH [3] | Solubility ([1]; in EtOH) [mM in] | Solubility ([1]; in H2O) [mM in] | Ratio Intensity pH 5.0/7.5 ([2]; listed as 5)
1 | CCN(C)c1ccc(OC2=C(/C=C/C3=[N+](C)c4ccccc4C3(C)C)CC/C2=C\C=C2\N(C)c3ccccc3C2(C)C)cc1.[Cl-] [CypH-8] |  | 41.4 | 2816 | 801 | 68 | 791 | 72,700 M^−1cm^−1 | 777 nm | >1 |  | 
2 | CN(C)c1ccc(OC2=C(/C=C/C3=[N+](C)c4ccccc4C3(C)C)CC/C2=C\C=C2\N(C)c3ccccc3C2(C)C)cc1.[Cl-] [CypH-4] |  | 23.2 | 1924 | 801 | 83 | 790 | 58,000 M^−1cm^−1 | 775 nm | >1 |  | 
3 | CCN(C)c1ccc(OC2=C(/C=C/C3=[N+](CC)c4ccccc4C3(C)C)CCC/C2=C\C=C2\N(CC)c3ccccc3C2(C)C)cc1 [CypH-7] | > 1000 | 27.8 | 5681 | 788 | 204 | 786 | 179,500 M^−1cm^−1 | 764 nm |  |  | 
4 | CCN(C)c1ccc(OC2=C(/C=C/C3=[N+](CCCS(=O)(=O)[O-])c4ccccc4C3(C)C)CCC/C2=C\C=C2\N(CCCS(=O)(=O)[O-])c3ccccc3C2(C)C)cc1.[Na+] [CypH-6] |  | 10.8 | 4359 | 789 | 405 | 791 | 150,400 M^−1cm^−1 | 768# nm |  | >1 | 
5 | CCN1/C(=C/C=C2\CCCC(/C=C/C3=[N+](CC)c4ccccc4C3(C)C)=C2Oc2ccc(N(C)C(C)C)cc2)C(C)(C)c2ccccc21 [CypH-10] | > 1000 | 13.0 | 5380 | 788 | 414 | 781 | 175,400 M^−1cm^−1 | 765 nm |  |  | 
6 | CCN1/C(=C/C=C2\CCCC(/C=C/C3=[N+](CC)c4ccccc4C3(C)C)=C2Oc2ccc(N(C)C)cc2)C(C)(C)c2ccccc21 [CypH-2] | > 1000 | 30.6 | 4254 | 787 | 139 | 786 | 139,100 M^−1cm^−1 | 764 nm |  |  | 
7 | CCN(C)c1ccc(OC2=C(/C=C/C3=[N+](C)c4ccccc4C3(C)C)CCC/C2=C\C=C2\N(C)c3ccccc3C2(C)C)cc1 [CypH-5] | > 1000 | 22 | 5089 | 786 | 227 | 787 | 134,000 M^−1cm^−1 | 762 nm |  |  | 22.4

The next lines start with the values.

Row | Solubility [1, 4] [µM] | Ratio Intensity pH 5.0/7.5 [2] | FL Intensity pH 5.0 [2] | FL Max (nm) pH 5.0 [2] [nm] | FL Intensity pH 7.5 [2] | FL Max (nm) pH 7.5 [2] [nm] | Ex Coeff (M^−1cm^−1) @ Abs Max [3] | Abs. Max (nm) in EtOH [3] | Solubility ([1]; in EtOH) [mM in] | Solubility ([1]; in H2O) [mM in] | Ratio Intensity pH 5.0/7.5 ([2]; listed as 5) | Compound
8 | > 1000 | 57.3 | 4468 | 791 | 78 | 782 | 269,100 M^−1cm^−1 | 770 nm |  |  |  | CCN(C)c1ccc(OC2=C(/C=C/C3=[N+](C(C)C)c4ccccc4C3(C)C)CCC/C2=C\C=C2\N(C(C)C)c3ccccc3C2(C)C)cc1 [CypH-17]
9 |  | 68.2 | 3137 | 794 | 46 | 784 | 240,900 M^−1cm^−1 | 774 nm | >1 |  |  | CC(C)CN1/C(=C/C=C2\CCCC(/C=C/C3=[N+](CC(C)C)c4ccccc4C3(C)C)=C2Oc2ccc(N(C)C)cc2)C(C)(C)c2ccccc21.[I-] [CypH-19]
10 |  | 38.2 | 4553 | 792 | 117 | 782 | 257,300 M^−1cm^−1 | 772 nm | >1 |  |  | CCCN1/C(=C/C=C2\CCCC(/C=C/C3=[N+](CCC)c4ccccc4C3(C)C)=C2Oc2ccc(N(C)CC)cc2)C(C)(C)c2ccccc21.[I-] [CypH-18]
11 |  | 53.2 | 4313 | 791 | 81 | 786 | 251,500 M^−1cm^−1 | 772 nm | >1 |  |  | CCCN1/C(=C/C=C2\CCCC(/C=C/C3=[N+](CCC)c4ccccc4C3(C)C)=C2Oc2ccc(N(C)C)cc2)C(C)(C)c2ccccc21.[I-] [CypH-15]
12 |  | 35.0 | 4204 | 796 | 120 | 790 | 218,100 M^−1cm^−1 | 774 nm | >1 |  |  | CC(C)CN1/C(=C/C=C2\CCCC(/C=C/C3=[N+](CC(C)C)c4ccccc4C3(C)C)=C2Oc2ccc(N(C)C(C)C)cc2)C(C)(C)c2ccccc21.[I-] [CypH-13]
13 |  | 35.1 | 3646 | 794 | 104 | 789 | 218,600 M^−1cm^−1 | 774 nm | >1 |  |  | CCN(C)c1ccc(OC2=C(/C=C/C3=[N+](CC(C)C)c4ccccc4C3(C)C)CCC/C2=C\C=C2\N(CC(C)C)c3ccccc3C2(C)C)cc1.[I-] [CypH-20]
14 |  | 5.9 | 5627 | 786 | 958 | 784 | 215,800 M^−1cm^−1 | 767 nm | >1 |  |  | CCN(CC)c1ccc(OC2=C(/C=C/C3=[N+](C)c4ccccc4C3(C)C)CCC/C2=C\C=C2\N(C)c3ccccc3C2(C)C)cc1.[Cl-] [CypH-14]
15 |  | 26.6 | 4847 | 791 | 182 | 783 | 248,000 M^−1cm^−1 | 771 nm | >1 |  |  | CCCN1/C(=C/C=C2\CCCC(/C=C/C3=[N+](CCC)c4ccccc4C3(C)C)=C2Oc2ccc(N(C)C(C)C)cc2)C(C)(C)c2ccccc21.[I-] [CypH-16]
16 | > 1000 | 8.7 | 4285 | 787 | 493 | 784 | 255,600 M^−1cm^−1 | 767 nm |  |  |  | CC(C)N(C)c1ccc(OC2=C(/C=C/C3=[N+](C)c4ccccc4C3(C)C)CCC/C2=C\C=C2\N(C)c3ccccc3C2(C)C)cc1 [CypH-12]

Source: US20230302159A1, “COMPOUNDS AND COMPOSITIONS FOR TUMOR DETECTION AND SURGICAL GUIDANCE” (Cornell University, priority 2020, published 2023)
